According to PubChem BioAssay (NCI):
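Assay format: 96-well plates, 48-hour exposure. TGI marks complete inhibition of growth.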

Tests used:
Experiment in all cases: NCI tumour cell line growth inhibition, 48 h
DMS 273 small cell lung = tested on: DMS 273 small cell lung
MDA-N = tested on: MDA-N
MDA-MB-231 breast = tested on: MDA-MB-231 breast
MCF7 breast = tested on: MCF7 breast
HS 578T breast = tested on: HS 578T breast

SMILES | TGI (DMS 273 small cell lung) | TGI (MDA-N) | TGI (MDA-MB-231 breast) | TGI (MCF7 breast) | TGI (HS 578T breast)
CCC12CCC[C@@]13C=C[C@H](O3)C(C)(C)C2=O (stereo not given in full) | > 100 µM | – | – | – | –
CC1(C)N=C(/C(Cl)=[N+](/[O-])C(=O)c2ccc(Cl)cc2)C(C)(C)N1O | – | 32.4 µM | 40 µM | 32.7 µM | > 100 µM
